This passage reports GI50 and TGI results from PubChem BioAssay (NCI).

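Method: 48-hour compound exposure of cells in 96-well plates, five concentrations, linear interpolation of endpoints. Abbreviation: GI50, concentration required for 50% inhibition of growth. TGI is the concentration that stops growth completely.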

Some test systems named below: IGROV1 ovarian; MALME-3M melanoma; MOLT-4 leukemia; RPMI-8226 leukemia; RXF 393 renal; SN12C renal; SR leukemia; SW-620 colon; U251 CNS; UO-31 renal.
Test in all cases: growth of human tumour cells (NCI), 48 h

As for `c1cc(-c2cnn3nc(N4CCOCC4)ccc23)nc(NC2CC2)n1`, the GI50 with IGROV1 ovarian is 10.3 µM; with MALME-3M melanoma, 12.1 µM; in the test on MOLT-4 leukemia, 13.7 µM; in the test on RPMI-8226 leukemia, 6.71 µM; in the test with RXF 393 renal, 4.58 µM; in the test with SN12C renal, 8.83 µM. The GI50 in the test with SR leukemia was 6.48 µM; in the test on SW-620 colon, 8.9 µM; in the test on U251 CNS, 6.97 µM; in the test on UO-31 renal, 7.12 µM. Further, the TGI in the test on IGROV1 ovarian was greater than 25 µM; with MALME-3M melanoma, greater than 25 µM; with MOLT-4 leukemia, greater than 25 µM; with RPMI-8226 leukemia, greater than 25 µM; in the test with RXF 393 renal it was 10.8 µM; in the test with SN12C renal, greater than 25 µM. The TGI is 20 µM in the test with SR leukemia, greater than 25 µM in the test on SW-620 colon, greater than 25 µM in the test with U251 CNS and greater than 21.4 µM with UO-31 renal.

Take `C[C@@]1(CBr)C[C@@](C)(/C=C/Cl)[C@@H](Cl)C[C@H]1Cl`: the TGI was determined as 29 µM in the test with IGROV1 ovarian; 30.4 µM in the test with MALME-3M melanoma; 19.4 µM with MOLT-4 leukemia; 27.9 µM with RXF 393 renal; 24.4 µM with SN12C renal; 16.9 µM with SR leukemia. Further, the TGI turned out to be 27.8 µM with SW-620 colon, 27.9 µM in the test on U251 CNS and 29.1 µM with UO-31 renal.

Consider `Cc1ccc(C(=O)Nc2ccccc2C(=O)N/N=C(\c2ccccc2)c2ccccn2)cc1`, for which the GI50 is 0.177 µM with IGROV1 ovarian; 0.752 µM in the test with MALME-3M melanoma; 0.374 µM with MOLT-4 leukemia; 1.13 µM in the test with RPMI-8226 leukemia; 1.53 µM in the test on RXF 393 renal; 0.76 µM with SN12C renal. Also, the GI50 in the test with SR leukemia was 0.208 µM; in the test with SW-620 colon it was 0.603 µM; with U251 CNS, 0.485 µM; in the test on UO-31 renal, 0.107 µM. Besides, the TGI in the test on IGROV1 ovarian, in the test on MALME-3M melanoma, in the test with MOLT-4 leukemia, with RPMI-8226 leukemia, in the test on RXF 393 renal and in the test with SN12C renal was greater than 100 µM each time. For the same molecule, the TGI in the test with SR leukemia is greater than 100 µM; in the test on SW-620 colon, greater than 100 µM; in the test on U251 CNS, greater than 100 µM; in the test with UO-31 renal, 2.66 µM.

Take `C=C(C)C1CCC2(CO)C(O)CC3(C)C(CCC4C5(C)CCC(O)C(C)(C)C5CCC43C)C12` (configuration not stated): the TGI in the test on IGROV1 ovarian is 30 µM; in the test on MALME-3M melanoma, 32 µM; in the test on MOLT-4 leukemia, greater than 100 µM; in the test with RXF 393 renal it was 9.65 µM; in the test on SN12C renal, greater than 100 µM; in the test on SR leukemia it was greater than 100 µM. Besides, the TGI was greater than 100 µM with SW-620 colon, 9.96 µM in the test with U251 CNS and 26.7 µM in the test with UO-31 renal.

Regarding `NCCCn1c2c(c3ccc([N+](=O)[O-])cc3c1=O)C(=O)c1cc(Cl)ccc1-2`, the GI50 with MALME-3M melanoma, in the test with MOLT-4 leukemia, with RPMI-8226 leukemia, in the test with RXF 393 renal, with SN12C renal and with SR leukemia was less than 0.01 µM each time. The GI50 in the test with SW-620 colon, in the test on U251 CNS and in the test on UO-31 renal was less than 0.01 µM each time. Moreover, the TGI is 0.195 µM with MALME-3M melanoma; less than 0.0114 µM in the test on MOLT-4 leukemia; 0.0367 µM with RPMI-8226 leukemia; 0.118 µM with RXF 393 renal; 0.146 µM with SN12C renal; 0.0325 µM in the test with SR leukemia. Further, the TGI in the test on SW-620 colon came to 0.213 µM; with U251 CNS, 0.123 µM; with UO-31 renal, 0.122 µM.

`CC1(C)CC(O)CCCCCCOc2c(CN)cccc2NC(=O)c2nc(cnc2N)-c2ccc(cc2)S1(=O)=O` (configuration not stated): the GI50 in the test on IGROV1 ovarian was 0.148 µM; in the test with MALME-3M melanoma, 1.31 µM; in the test on MOLT-4 leukemia, less than 0.0122 µM; with RXF 393 renal, less than 0.01 µM; with SN12C renal, 0.761 µM; in the test on SR leukemia, less than 0.01 µM. Also, the GI50 is 0.629 µM in the test with SW-620 colon, 0.382 µM with U251 CNS and 0.648 µM with UO-31 renal. For the same molecule, the TGI with IGROV1 ovarian came out at 1.48 µM; with MALME-3M melanoma, 2.81 µM; in the test with MOLT-4 leukemia, 2.01 µM; with RXF 393 renal, 1.54 µM; in the test with SN12C renal it was 2.49 µM; in the test with SR leukemia, 0.469 µM. Further, the results for the TGI in the test with SW-620 colon, with U251 CNS and in the test with UO-31 renal were 2.36 µM, 1.86 µM and 2.25 µM, respectively.

As for `O=C(O)CCc1nc(-c2ccccc2)c(-c2ccccc2)o1`, the TGI with IGROV1 ovarian, in the test on MALME-3M melanoma, in the test on MOLT-4 leukemia, with RPMI-8226 leukemia, with RXF 393 renal and in the test with SN12C renal was greater than 100 µM in each case. Also, the TGI in the test with SR leukemia, in the test on SW-620 colon and in the test with U251 CNS was greater than 100 µM each time.

On to `COc1ccc(NCc2c(O)ccc3ccccc23)cc1`, for which the TGI in the test on IGROV1 ovarian was greater than 100 µM; in the test with MALME-3M melanoma, 38.8 µM; in the test with RPMI-8226 leukemia it was 63.6 µM; in the test on RXF 393 renal it was 35 µM; with SN12C renal, greater than 100 µM; in the test with SR leukemia, 39.5 µM. Further, the TGI in the test with SW-620 colon is 49.6 µM; with U251 CNS it was greater than 100 µM; in the test with UO-31 renal it was greater than 100 µM.

Regarding `Oc1cccc2nc3cc(CN4CCOCC4)c(CN4CCOCC4)cc3nc12`, the TGI in the test on IGROV1 ovarian, in the test on MALME-3M melanoma, in the test with MOLT-4 leukemia, in the test with RXF 393 renal, in the test on SN12C renal and with SR leukemia was greater than 100 µM each time. For the same molecule, the TGI in the test with SW-620 colon, with U251 CNS and with UO-31 renal was greater than 100 µM in each case.

Regarding `Cc1ccc2oc(=O)cc(C3c4ccc([nH]4)C(c4cc(=O)oc5ccc(C)cc45)c4ccc([nH]4)C(c4cc(=O)oc5ccc(C)cc45)c4ccc([nH]4)C(c4cc(=O)oc5ccc(C)cc45)c4ccc3[nH]4)c2c1` (configuration not stated), the GI50 in the test with IGROV1 ovarian was 0.0492 µM; with MALME-3M melanoma, 0.131 µM; in the test with RPMI-8226 leukemia it was 0.0516 µM; with RXF 393 renal, 0.0254 µM; in the test on SN12C renal it was 0.0586 µM; in the test on SR leukemia it was 0.0417 µM. Also, the GI50 is 0.0352 µM in the test with SW-620 colon, 0.0369 µM in the test on U251 CNS and 0.0364 µM in the test with UO-31 renal. For the same molecule, the TGI in the test on IGROV1 ovarian was 1.73 µM; in the test on MALME-3M melanoma it was 2.85 µM; in the test on RPMI-8226 leukemia, 0.578 µM; with RXF 393 renal, 0.0774 µM; with SN12C renal it was 1.74 µM; in the test with SW-620 colon it was 3.34 µM. Besides, the TGI is 1.27 µM in the test on U251 CNS and 1.19 µM with UO-31 renal.

`O=C(Cc1nc2ccccc2s1)C(=O)Nc1ccc(Cl)cc1Cl`: the TGI with IGROV1 ovarian, in the test with MALME-3M melanoma, in the test on MOLT-4 leukemia, with RPMI-8226 leukemia, in the test with SN12C renal and in the test with SR leukemia was greater than 100 µM throughout. For the same molecule, the TGI in the test with SW-620 colon, in the test on U251 CNS and in the test on UO-31 renal was greater than 100 µM in each case.
